Results on six compounds are retold here after patent EP4678638A1, “NEW E3 UBIQUITIN LIGASE LIGAND, PROTEIN DEGRADATION AGENT AND USE THEREOF” (priority 2023, dated 2024).

One assay addresses T1, CDK6 (Homo sapiens, UniProt Q00534).
T1 construct: evaluate the effects of the compounds of the present disclosure on the expression of target proteins in cells; endogenous in cells; host or cells: MDA-MB-231
The assay is described as follows: Western blot degradation of CDK6 (MDA-MB-231 Cell). The settings on record: Table D3. The format is cell-based. Here is the method:
(§1) Conventional Western blot assay was performed to evaluate the effects of the compounds of the present disclosure on the expression of target proteins in cells.
(§2) (1) Cell Seeding and Protein Harvesting: The selected cells were processed according to the cell seeding procedure and protein harvesting procedure in Table III-2. Table III-2 Cell Seeding and Protein Harvesting Procedures
(§3) (2) To the collected supernatant, 5X SDS sample loading buffer was added, followed by denaturation at 95°C for 5 minutes. The denatured samples were then separated by SDS-PAGE electrophoresis on a polyacrylamide gel. Proteins were transferred to a nitrocellulose membrane (0.45 µm NC membrane), blocked with blocking buffer at room temperature for 1 hour, and subjected to antibody incubation and development procedures according to the antibody manufacturer's instructions (Cell Signaling Technology).
(§4) Half-Maximal Degradation Concentration value (the drug concentration required for degrading proteins by 50%, abbreviated as DC50) reads method: comparing the grayscale values of Western blot bands from drug-treated samples with those from blank DMSO-treated controls, and identifying the drug concentration range at which the grayscale value is half that of the DMSO-treated control bands.
(§5) DC50 values can be calculated using ImageJ software to measure grayscale values of Western blot bands from drug-treated samples. The concentration-response curve is fitted to estimate the drug concentration corresponding to half the grayscale value.
(§6) Target protein remaining (%) refers to the percentage of target protein remaining in hPBMC cells after treatment with protein degrader compounds.
(§7) Calculation method for target protein remaining (%): Use ImageJ software to measure grayscale values of Western blot bands from drug (protein degrader)-treated samples. The grayscale value of drug-treated bands is divided by that of internal control protein bands, and the resulting quotient is normalized to obtain the relative percentage of remaining target protein after protein degrader treatment.
(§8) Target protein degradation rate (%) = 100% - target protein remaining (%).
(In western blotting, separated proteins are transferred to a membrane and probed.)

In assay [1] the target is T2, human Cereblon WT GST-tagged protein (Homo sapiens, UniProt Q96SW2).
T2 construct: purchased CISBIO 64BDCRBNPEH
The assay is described as follows: CRBN binding, HTRF (CEREBLON BINDING kit). To be noted: Table II-2, CRBN binding screening, HTRF; for inhibition at 0.5 µM: read-out: Inhibition rate (%) at 0.5µM; for inhibition at 2 µM: read-out: Inhibition rate (%) at 2 µM. In short, it runs like this:
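Competitive HTRF: GST-tagged human WT Cereblon mixed with compound, Thalidomide-Re tracer and GST Eu antibody, incubated 3 h at room temperature. Signals read at 620 and 665 nm.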
For orientation: Time-resolved FRET reads energy transfer from a long-lived donor to a nearby acceptor.

The target of the next assay is T3, CDK4 (Homo sapiens, UniProt P11802).
T3 construct: evaluate the effects of the compounds of the present disclosure on the expression of target proteins in cells; endogenous in cells; host or cells: MDA-MB-231
The assay is described as follows: Western blot degradation of CDK4 (MDA-MB-231 Cell). The format is cell-based. The settings on record: Table D3. The method, then: as §1, §2, §3, §4, §5, §6, §7, §8

T2 sequence (Q96SW2 whole entry): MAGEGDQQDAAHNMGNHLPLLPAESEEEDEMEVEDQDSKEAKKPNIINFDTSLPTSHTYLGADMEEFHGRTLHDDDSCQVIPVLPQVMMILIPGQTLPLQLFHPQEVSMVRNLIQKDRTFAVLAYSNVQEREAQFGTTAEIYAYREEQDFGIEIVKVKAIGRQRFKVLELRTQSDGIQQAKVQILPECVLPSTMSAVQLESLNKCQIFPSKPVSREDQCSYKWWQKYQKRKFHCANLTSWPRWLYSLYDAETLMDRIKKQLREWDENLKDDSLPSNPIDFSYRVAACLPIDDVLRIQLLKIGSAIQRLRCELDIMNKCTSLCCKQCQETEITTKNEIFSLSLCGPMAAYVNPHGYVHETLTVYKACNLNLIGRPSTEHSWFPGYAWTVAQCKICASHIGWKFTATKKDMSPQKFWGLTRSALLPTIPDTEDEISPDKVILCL
T3 sequence (P11802 whole entry): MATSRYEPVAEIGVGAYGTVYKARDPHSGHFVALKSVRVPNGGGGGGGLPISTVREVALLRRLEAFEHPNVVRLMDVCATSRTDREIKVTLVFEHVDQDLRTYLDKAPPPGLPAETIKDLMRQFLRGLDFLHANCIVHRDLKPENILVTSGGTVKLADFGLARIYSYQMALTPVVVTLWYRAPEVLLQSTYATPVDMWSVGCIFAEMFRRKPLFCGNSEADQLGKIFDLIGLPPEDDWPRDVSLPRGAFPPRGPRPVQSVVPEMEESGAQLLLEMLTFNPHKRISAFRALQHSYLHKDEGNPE
T1 sequence (Q00534 whole entry): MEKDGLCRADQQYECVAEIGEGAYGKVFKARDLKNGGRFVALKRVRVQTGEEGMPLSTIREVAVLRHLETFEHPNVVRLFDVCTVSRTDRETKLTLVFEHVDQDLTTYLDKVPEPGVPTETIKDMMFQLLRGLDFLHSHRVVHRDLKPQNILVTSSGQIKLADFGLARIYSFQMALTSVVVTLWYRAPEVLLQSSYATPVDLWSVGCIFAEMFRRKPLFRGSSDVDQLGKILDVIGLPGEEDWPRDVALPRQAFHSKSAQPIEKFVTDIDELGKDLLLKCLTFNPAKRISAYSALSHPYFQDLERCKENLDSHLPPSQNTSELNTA

`CN(C)C(=O)c1cc2cnc(Nc3ccc(N4CCN(Cc5cncc(N6CCC(=O)NC6=O)c5)CC4)cn3)nc2n1C1CCCC1` [GT-07476, 7-cyclopentyl-2-((5-(4-((5-(2,4-dioxotetrahydropyrimidin-1(2H)-yl)pyridin-3-yl)methyl)piperazin-1-yl)pyridin-2-yl)amino)-N,N-dimethyl-7H-pyrrolo[2,3-d]pyrimidine-6-carboxamide]: the “Degradation of substrate protein CDK6 (substrate protein remaining %)” value on CDK6 is recorded as “A (A is defined as 0% ≤ substrate protein remaining % ≤ 80%)”. In addition, in assay [1], the inhibition at 0.5 µM is 30 to 40% and the inhibition at 2 µM is 60 to 80%. The “Degradation of substrate protein CDK4 (substrate protein remaining %)” value on CDK4 was “A (A is defined as 0% ≤ substrate protein remaining % ≤ 80%)”.
For the compound `CN(C)C(=O)c1cc2cnc(Nc3ccc(N4CCN(Cc5ccc(C6CCC(=O)NC6=O)cn5)CC4)cn3)nc2n1C1CCCC1` (stereo not drawn) [GT-07477, 7-cyclopentyl-2-((5-(4-((5-(2,6-dioxopiperidin-3-yl)pyridin-2-yl)methyl)piperazin-1-yl)pyridin-2-yl)amino)-N,N-dimethyl-7H-pyrrolo[2,3-d]pyrimidine-6-carboxamide], at CDK6, the “Degradation of substrate protein CDK6 (substrate protein remaining %)” value is on record as “A (A is defined as 0% ≤ substrate protein remaining % ≤ 80%)”. Also, in assay [1], the inhibition at 0.5 µM was 20 to 30% and the inhibition at 2 µM lay within 60 to 80%. The “Degradation of substrate protein CDK4 (substrate protein remaining %)” value on CDK4 was “A (A is defined as 0% ≤ substrate protein remaining % ≤ 80%)”.
As for `CN(C)C(=O)c1cc2cnc(Nc3ccc(N4CCN(Cc5cncc(C6CCC(=O)NC6=O)c5)CC4)cn3)nc2n1C1CCCC1` (stereo not drawn) [GT-07479, 7-cyclopentyl-2-((5-(4-((5-(2,6-dioxopiperidin-3-yl)pyridin-3-yl)methyl)piperazin-1-yl)pyridin-2-yl)amino)-N,N-dimethyl-7H-pyrrolo[2,3-d]pyrimidine-6-carboxamide], the “Degradation of substrate protein CDK6 (substrate protein remaining %)” value on CDK6 is given as “A (A is defined as 0% ≤ substrate protein remaining % ≤ 80%)”. Also, in assay [1], the inhibition at 0.5 µM fell in the range of 53 to 60% and the inhibition at 2 µM fell in the range of 80 to 100%. In addition, the “Degradation of substrate protein CDK4 (substrate protein remaining %)” value at CDK4 is “A (A is defined as 0% ≤ substrate protein remaining % ≤ 80%)”.
As to `CC(=O)c1c(C)c2cnc(Nc3ccc(N4CCN(Cc5cnc(N6CCC(=O)NC6=O)cn5)CC4)cn3)nc2n(C2CCCC2)c1=O` [GT-07827, 1-(5-((4-(6-((6-acetyl-8-cyclopentyl-5-methyl-7-oxo-7,8-dihydropyrido[2,3-d]pyrimidin-2-yl)amino)pyridin-3-yl)piperazin-1-yl)methyl)pyrazin-2-yl)dihydropyrimidine-2,4(1H,3H)-dione], the “Degradation of substrate protein CDK6 (substrate protein remaining %)” value on CDK6 was “A (A is defined as 0% ≤ substrate protein remaining % ≤ 80%)”. The “Degradation of substrate protein CDK4 (substrate protein remaining %)” value at CDK4 is given as “A (A is defined as 0% ≤ substrate protein remaining % ≤ 80%)”.
For `CN(C)C(=O)c1cc2cnc(Nc3ccc(N4CCN(Cc5cnc(N6CCC(=O)NC6=O)cn5)CC4)cn3)nc2n1C1CCCC1` [GT-07831, 7-cyclopentyl-2-((5-(4-((5-(2,4-dioxotetrahydropyrimidin-1(2H)-yl)pyrazin-2-yl)methyl)piperazin-1-yl)pyridin-2-yl)amino)-N,N-dimethyl-7H-pyrrolo[2,3-d]pyrimidine-6-carboxamide], on CDK6, the “Degradation of substrate protein CDK6 (substrate protein remaining %)” value is reported as “A (A is defined as 0% ≤ substrate protein remaining % ≤ 80%)”. Further, on CDK4, the “Degradation of substrate protein CDK4 (substrate protein remaining %)” value is “A (A is defined as 0% ≤ substrate protein remaining % ≤ 80%)”.
Consider `CC(=O)c1c(C)c2cnc(Nc3ccc(N4CCN(Cc5cc(N6CCC(=O)NC6=O)cnc5F)CC4)cn3)nc2n(C2CCCC2)c1=O` [GT-07832, 1-(5-((4-(6-((6-acetyl-8-cyclopentyl-5-methyl-7-oxo-7,8-dihydropyrido[2,3-d]pyrimidin-2-yl)amino)pyridin-3-yl)piperazin-1-yl)methyl)-6-fluoropyridin-3-yl)dihydropyrimidine-2,4(1H,3H)-dione], for which the “Degradation of substrate protein CDK6 (substrate protein remaining %)” value on CDK6 is on record as “A (A is defined as 0% ≤ substrate protein remaining % ≤ 80%)”. Besides, the “Degradation of substrate protein CDK4 (substrate protein remaining %)” value at CDK4 is reported as “A (A is defined as 0% ≤ substrate protein remaining % ≤ 80%)”.

Usually inhibition stands for the share of the control response that was lost under treatment.
